Columns and labels:
[1] = molecular target: Sodium channel protein type 5 subunit alpha (Homo sapiens, UniProt Q14524); assay type: functional, cell-based
[2] = molecular target: Synaptic vesicular amine transporter (Rattus norvegicus, UniProt Q01827); assay type: functional
Androgen receptor [3] = molecular target: T1, Androgen receptor (Rattus norvegicus, UniProt P15207); assay type: functional
T1 sequence (P15207 whole entry): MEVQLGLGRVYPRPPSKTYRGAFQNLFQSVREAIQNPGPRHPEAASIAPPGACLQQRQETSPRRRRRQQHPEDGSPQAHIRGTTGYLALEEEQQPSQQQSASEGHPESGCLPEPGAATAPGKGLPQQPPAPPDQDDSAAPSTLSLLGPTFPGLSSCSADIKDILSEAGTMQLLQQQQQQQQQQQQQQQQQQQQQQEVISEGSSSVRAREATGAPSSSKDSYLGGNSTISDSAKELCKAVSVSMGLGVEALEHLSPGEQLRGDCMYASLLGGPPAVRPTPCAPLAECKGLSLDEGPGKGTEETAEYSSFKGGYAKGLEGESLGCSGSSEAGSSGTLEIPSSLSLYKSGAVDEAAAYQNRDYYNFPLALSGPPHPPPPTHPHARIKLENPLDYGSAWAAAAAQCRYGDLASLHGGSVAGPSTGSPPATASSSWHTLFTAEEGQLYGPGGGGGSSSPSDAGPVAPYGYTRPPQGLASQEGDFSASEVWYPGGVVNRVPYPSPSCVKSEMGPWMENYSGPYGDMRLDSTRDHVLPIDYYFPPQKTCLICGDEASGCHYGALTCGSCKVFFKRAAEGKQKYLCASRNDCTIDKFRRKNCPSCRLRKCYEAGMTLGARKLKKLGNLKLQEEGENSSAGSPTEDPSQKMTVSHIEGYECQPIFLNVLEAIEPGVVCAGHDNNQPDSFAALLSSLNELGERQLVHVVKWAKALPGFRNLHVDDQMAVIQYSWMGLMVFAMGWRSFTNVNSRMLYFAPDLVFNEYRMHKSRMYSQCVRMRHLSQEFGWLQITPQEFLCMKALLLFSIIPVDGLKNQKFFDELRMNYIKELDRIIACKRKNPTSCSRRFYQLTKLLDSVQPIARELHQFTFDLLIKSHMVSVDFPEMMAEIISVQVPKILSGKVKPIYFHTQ

Androgen receptor [4] = molecular target: T1, Androgen receptor; assay type: functional; remark: listed apart in the source
Androgen receptor [5] = molecular target: T1, Androgen receptor
[6] = molecular target: Gamma-aminobutyric acid type B receptor subunit 1 (Homo sapiens, UniProt Q9UBS5)
Also: assay procedure not described here.

Synaptic vesicular amine transporter, sequence (Q01827 whole entry): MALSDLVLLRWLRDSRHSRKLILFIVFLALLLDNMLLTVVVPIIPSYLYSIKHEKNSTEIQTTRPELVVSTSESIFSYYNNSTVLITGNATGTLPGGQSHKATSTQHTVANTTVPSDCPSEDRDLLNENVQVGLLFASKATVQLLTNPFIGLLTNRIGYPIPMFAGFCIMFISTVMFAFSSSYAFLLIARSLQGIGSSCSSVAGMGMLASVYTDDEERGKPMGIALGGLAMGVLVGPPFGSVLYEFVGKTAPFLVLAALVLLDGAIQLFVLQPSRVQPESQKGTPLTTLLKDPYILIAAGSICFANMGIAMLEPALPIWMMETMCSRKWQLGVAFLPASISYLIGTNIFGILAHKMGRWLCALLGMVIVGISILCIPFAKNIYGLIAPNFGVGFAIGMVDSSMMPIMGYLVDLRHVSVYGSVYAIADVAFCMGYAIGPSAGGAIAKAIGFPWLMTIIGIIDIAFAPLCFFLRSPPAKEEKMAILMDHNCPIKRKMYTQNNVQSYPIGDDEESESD
Sodium channel protein type 5 subunit alpha, sequence (Q14524 whole entry): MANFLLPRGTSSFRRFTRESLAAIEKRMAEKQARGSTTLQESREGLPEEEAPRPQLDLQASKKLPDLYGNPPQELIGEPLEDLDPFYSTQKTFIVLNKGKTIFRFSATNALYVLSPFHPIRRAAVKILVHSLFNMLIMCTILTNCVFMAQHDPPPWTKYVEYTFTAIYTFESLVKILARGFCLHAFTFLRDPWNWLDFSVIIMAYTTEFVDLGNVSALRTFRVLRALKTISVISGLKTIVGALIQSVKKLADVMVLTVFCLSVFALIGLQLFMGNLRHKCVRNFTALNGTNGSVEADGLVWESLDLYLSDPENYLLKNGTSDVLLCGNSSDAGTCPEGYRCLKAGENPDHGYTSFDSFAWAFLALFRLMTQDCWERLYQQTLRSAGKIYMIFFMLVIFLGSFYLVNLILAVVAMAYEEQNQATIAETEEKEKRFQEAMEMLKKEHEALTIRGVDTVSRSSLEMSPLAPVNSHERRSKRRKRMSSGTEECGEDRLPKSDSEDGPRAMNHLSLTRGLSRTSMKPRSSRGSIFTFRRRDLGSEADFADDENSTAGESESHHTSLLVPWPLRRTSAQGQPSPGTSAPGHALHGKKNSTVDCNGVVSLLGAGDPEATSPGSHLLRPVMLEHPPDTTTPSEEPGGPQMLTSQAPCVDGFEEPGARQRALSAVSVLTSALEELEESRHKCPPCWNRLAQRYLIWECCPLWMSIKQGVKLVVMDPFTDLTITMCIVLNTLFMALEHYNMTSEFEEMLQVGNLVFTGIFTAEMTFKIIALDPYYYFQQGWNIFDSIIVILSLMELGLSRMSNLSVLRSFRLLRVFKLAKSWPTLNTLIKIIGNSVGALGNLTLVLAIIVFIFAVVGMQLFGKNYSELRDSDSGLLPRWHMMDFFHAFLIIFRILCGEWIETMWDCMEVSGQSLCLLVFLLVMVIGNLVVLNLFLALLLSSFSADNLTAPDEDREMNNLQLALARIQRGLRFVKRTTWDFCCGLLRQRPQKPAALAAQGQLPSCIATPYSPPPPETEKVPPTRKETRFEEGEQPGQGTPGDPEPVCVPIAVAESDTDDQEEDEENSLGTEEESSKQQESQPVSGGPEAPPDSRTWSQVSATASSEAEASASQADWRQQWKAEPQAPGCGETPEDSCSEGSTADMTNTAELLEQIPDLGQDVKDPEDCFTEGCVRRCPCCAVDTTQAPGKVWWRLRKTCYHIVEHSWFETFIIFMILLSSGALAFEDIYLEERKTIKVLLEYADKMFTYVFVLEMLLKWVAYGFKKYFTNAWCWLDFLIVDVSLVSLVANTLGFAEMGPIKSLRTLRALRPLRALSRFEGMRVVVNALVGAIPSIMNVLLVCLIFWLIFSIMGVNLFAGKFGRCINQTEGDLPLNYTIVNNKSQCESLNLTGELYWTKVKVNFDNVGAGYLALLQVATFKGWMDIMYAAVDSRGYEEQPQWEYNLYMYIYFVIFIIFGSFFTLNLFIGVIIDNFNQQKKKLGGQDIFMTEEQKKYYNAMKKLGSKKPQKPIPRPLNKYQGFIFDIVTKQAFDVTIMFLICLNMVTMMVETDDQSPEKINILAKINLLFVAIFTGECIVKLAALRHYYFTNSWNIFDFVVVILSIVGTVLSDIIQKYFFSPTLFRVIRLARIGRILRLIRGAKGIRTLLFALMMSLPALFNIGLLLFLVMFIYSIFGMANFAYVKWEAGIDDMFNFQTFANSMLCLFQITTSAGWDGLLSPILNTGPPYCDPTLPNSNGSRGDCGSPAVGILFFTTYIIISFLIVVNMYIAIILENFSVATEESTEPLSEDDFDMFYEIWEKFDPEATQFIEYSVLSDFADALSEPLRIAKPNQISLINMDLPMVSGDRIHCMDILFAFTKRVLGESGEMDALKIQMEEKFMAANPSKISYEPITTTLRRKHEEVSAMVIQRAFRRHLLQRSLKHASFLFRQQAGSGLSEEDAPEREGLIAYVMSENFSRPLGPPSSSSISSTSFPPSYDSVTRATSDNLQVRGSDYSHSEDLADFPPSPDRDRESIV
Gamma-aminobutyric acid type B receptor subunit 1, sequence (Q9UBS5 whole entry): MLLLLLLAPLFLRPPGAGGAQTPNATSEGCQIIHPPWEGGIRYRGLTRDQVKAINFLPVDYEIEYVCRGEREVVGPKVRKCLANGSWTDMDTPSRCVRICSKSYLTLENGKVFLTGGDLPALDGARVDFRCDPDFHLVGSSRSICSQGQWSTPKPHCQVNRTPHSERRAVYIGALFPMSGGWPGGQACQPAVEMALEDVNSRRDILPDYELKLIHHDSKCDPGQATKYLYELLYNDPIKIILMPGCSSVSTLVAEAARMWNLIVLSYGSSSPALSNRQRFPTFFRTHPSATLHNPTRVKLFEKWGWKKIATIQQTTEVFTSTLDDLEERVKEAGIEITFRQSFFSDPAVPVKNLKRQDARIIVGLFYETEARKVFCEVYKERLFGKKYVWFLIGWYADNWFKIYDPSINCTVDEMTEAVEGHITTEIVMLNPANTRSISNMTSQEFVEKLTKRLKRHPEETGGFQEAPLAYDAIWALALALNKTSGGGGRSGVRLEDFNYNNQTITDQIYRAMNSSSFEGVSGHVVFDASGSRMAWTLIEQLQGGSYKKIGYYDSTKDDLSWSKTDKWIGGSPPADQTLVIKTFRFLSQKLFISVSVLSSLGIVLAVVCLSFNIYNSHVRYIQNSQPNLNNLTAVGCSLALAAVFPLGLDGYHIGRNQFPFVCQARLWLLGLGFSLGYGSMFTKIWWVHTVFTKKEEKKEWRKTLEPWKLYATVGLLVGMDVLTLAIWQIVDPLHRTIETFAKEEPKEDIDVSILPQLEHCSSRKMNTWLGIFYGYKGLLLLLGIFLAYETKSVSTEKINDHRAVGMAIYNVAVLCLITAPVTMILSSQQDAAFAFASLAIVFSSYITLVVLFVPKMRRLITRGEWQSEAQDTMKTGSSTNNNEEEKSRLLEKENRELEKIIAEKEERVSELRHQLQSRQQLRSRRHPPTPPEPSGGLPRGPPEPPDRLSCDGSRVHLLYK

Row | Compound | AC50 [1] [µM] | AC50 [2] [µM] | AC50 (Androgen receptor [3]) [µM] | AC50 (Androgen receptor [4]) [µM] | AC50 (Androgen receptor [5]) [µM] | AC50 [6] [µM]
1 | CCCCCCOc1nsnc1C1=CCCN(C)C1 [XANOMELINE] | 19 | 1.8 | – | – | – | –
2 | CN(C)CC(c1ccc(O)cc1)C1(O)CCCCC1 (stereo not drawn) [DESVENLAFAXINE] | – | > 30 | – | – | – | –
3 | CC[C@H]1[C@@H](O)[C@@H]2[C@H](CC[C@]3(C)[C@@H]([C@H](C)CCC(=O)O)CC[C@@H]23)[C@@]2(C)CC[C@@H](O)C[C@@H]12 [OBETICHOLIC ACID] | > 30 | > 30 | > 30 | > 30 | – | –
4 | O=C(CCNNC(=O)c1ccncc1)NCc1ccccc1 [NIALAMIDE] | > 50 | > 30 | – | – | – | –
5 | O=C(O)c1cc(O)ccc1O [GENTISIC ACID] | – | > 30 | – | – | – | –
6 | CO[C@H]1C[C@@H]2CC[C@@H](C)[C@@](O)(O2)C(=O)C(=O)N2CCCC[C@H]2C(=O)O[C@H]([C@H](C)C[C@@H]2CC[C@@H](O)[C@H](OC)C2)CC(=O)[C@H](C)/C=C(\C)[C@@H](O)[C@@H](OC)C(=O)[C@H](C)C[C@H](C)/C=C/C=C/C=C/1C [SIROLIMUS] | – | 23 | – | – | 11.9 | > 10
